From PMC9995496, “A screen for MeCP2-TBL1 interaction inhibitors using a luminescence-based assay” (Scientific Reports, 2023)

Target: T1, MeCP2-TBL1 interaction (MeCP2-SmBiT / TBL1-LgBiT) (Mus musculus, UniProt Q9QXE7)
T1 construct: expressed in transfected cells; crude lysate used as a cell-free assay
T1 sequence (Q9QXE7 166-527): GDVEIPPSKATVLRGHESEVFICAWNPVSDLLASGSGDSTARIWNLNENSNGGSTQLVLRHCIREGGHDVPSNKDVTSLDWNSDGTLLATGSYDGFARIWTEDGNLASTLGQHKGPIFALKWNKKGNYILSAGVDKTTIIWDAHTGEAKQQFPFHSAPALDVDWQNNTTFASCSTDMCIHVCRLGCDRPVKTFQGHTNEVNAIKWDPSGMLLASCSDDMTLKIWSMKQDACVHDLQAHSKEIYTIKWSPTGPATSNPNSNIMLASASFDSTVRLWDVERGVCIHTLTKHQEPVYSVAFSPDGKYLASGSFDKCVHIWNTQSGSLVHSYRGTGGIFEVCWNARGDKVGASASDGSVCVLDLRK
Experiment: MeCP2-TBL1 NanoLuc luciferase complementation assay (cell-free, extracts of transfected HEK293 cells);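 further: each compound tested at 20 µM final concentration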
Type: binding, human
Summary of the method: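 Cell-free split NanoLuc: lysate of HEK293 cells co-expressing the MeCP2 C-terminal half-SmBiT and TBL1 WD domain-LgBiT, mixed 1:1 with furimazine. After 30 min at room temperature, luminescence was plate-median normalized.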

[1] = primary screen of the Asinex library, sheet "Sargen output Asinex library", one well per compound, Batch Ref. 1
[2] = primary screen of the Asinex library, sheet "Sargen output Asinex library", one well per compound
[3] = primary screen of Asinex library, single well per compound

| SMILES | Inhibition percent [1] | other results |
| --- | --- | --- |
| NC(=O)c1cccc(-c2cccc(C3CN(C(=O)CCc4cccc(Cl)c4)CCO3)n2)c1 (centres unmarked) [BDF_25272769] | 7.95% | – |
| CNC(=O)c1ccc(-c2cccc(C3CN(CC(=O)NCc4ccccn4)CCO3)n2)cn1 (centres unmarked) [BDF_25324043] | – | Inhibition percent [2]: 1.99% |
| Cc1ccc(=O)n(CC(=O)N2CCOC3(CC=CCN(CCc4ccccc4)C3=O)C2)n1 (centres unmarked) [BDF_25862113] | – | Inhibition percent [3]: 3.93 |
| O=C(CC1CCCCC1)N1CCOC(c2nccnc2-c2cccc(C(F)(F)F)c2)C1 (centres unmarked) [BDF_25939482] | 0.68% | – |
| Cc1cc(-c2ccc(N)nc2)cc(C2CN(C(=O)CCc3cccc(Cl)c3)CCO2)n1 (centres unmarked) [BDF_26216758] | 8.38% | – |
| Cc1cc(Cc2cccc(F)c2)cc(C2CN(C(=O)Cc3ccc(F)cc3)CCO2)n1 (centres unmarked) [BDF_26219393] | -0.80% | – |
| Cc1cc(Cc2ccccc2F)cc(C2CN(C(=O)Cn3cnc4ccccc43)CCO2)n1 (centres unmarked) [BDF_26219772] | 3.08% | – |
| Cc1nc(C2(O)CCCN(Cc3ccncc3)CC2)sc1CCOc1ccccc1 (centres unmarked) [BDF_26909339] | -3.76% | – |
| FC(F)(F)c1ccccc1Cc1cccc(C2CN(Cc3cccnc3)CCO2)n1 (centres unmarked) [BDF_27574784] | 32.27% | – |
| CC(=O)Nc1ccc(C(=O)N2CCOC(c3cccc(Cc4ccccc4Cl)n3)C2)cc1 (centres unmarked) [BDF_27578760] | 0.59% | – |
| CC(=O)Nc1cccc([C@@H]2CN(CCc3ccc(F)cc3)C[C@]23CCCCC(=O)N3)c1 [BDF_30280717] | -0.37% | – |
| CC(=O)N[C@@]12CCN(S(=O)(=O)Cc3cccc(Cl)c3)C[C@@H]1[C@@H](c1ccccc1)N(C(C)=O)C2 [BDF_30361318] | – | Inhibition percent [3]: -5.79 |
| Cc1cccc(CN(CCc2c[nH]c3ccccc23)[C@@H]2CC[C@@H](NCc3ccccc3)[C@H]2O)c1 [BDF_33953574] | – | Inhibition percent [2]: 3.88% |
| COCCOc1cccc(CN2[C@H](Cc3ccccc3F)C[C@@H]3NC(=O)CCCC[C@H]32)c1 [BDG_23917768] | – | Inhibition percent [3]: -0.22 |
| COc1ccccc1-c1ccc(CN2[C@@H](c3ccccc3)C[C@@H]3NC(=O)CCC[C@H]32)cc1 [BDG_23930473] | 6.28% | – |
| Cn1c(CCC(=O)N2CC[C@@H]3[C@H]2CCCC(=O)N3Cc2ccc(F)cc2)nc2ccccc21 [BDG_23960040] | 1.86% | – |
| CN(CCC(=O)N1[C@H](Cc2ccccc2)C[C@]2(C)NC(=O)CCC[C@H]12)Cc1ccccn1 [BDG_24639113] | – | Inhibition percent [2]: -2.30% |
| Cc1cc(C)nc(NCCCC(=O)N2[C@H](Cc3ccccc3)C[C@]3(C)NC(=O)CCC[C@H]23)n1 [BDG_24639132] | – | Inhibition percent [3]: -1.41 |
| O=C1CCC[C@H]2[C@@H](C[C@@H](c3cccc(C(F)(F)F)c3)N2C(=O)CCc2ccccc2)N1 [BDG_27570843] | 0.77% | – |

| SMILES | Inhibition percent [1] | other results |
| --- | --- | --- |
| CC(=O)N[C@@]12CCN(CCOc3ccc(F)cc3)C[C@@H]1[C@@H](c1ccccc1)N(C(C)=O)C2 [BDG_30283198] | – | Inhibition percent [2]: -0.86% |
| C[C@]12C[C@@H]3N[C@H]1CCC[C@H]2N(Cc1ccccc1C(=O)O)[C@H]3Cc1ccccc1 [BDG_33391350] | -0.20% | – |
| C[C@]12C[C@@H]3N[C@H]1CCC[C@H]2N(C(=O)COc1ccccc1F)[C@H]3Cc1ccccc1 [BDG_33391690] | 4.10% | – |
| C[C@@]12C[C@H]3[C@@H](Cc4ccccc4)N[C@@H]1CCC[C@@H]2N3C(=O)c1cccc(Cc2ccccc2F)n1 [BDG_33393042] | – | Inhibition percent [3]: -2.99 |
| C[C@]12C[C@@H]3N[C@H]1CCC[C@H]2N(C(=O)c1cccc(Cc2ccccc2F)n1)[C@H]3Cc1ccccc1 [BDG_33393043] | – | Inhibition percent [2]: 5.29% |
| C[C@@]12C[C@H]3[C@H](Cc4ccccc4)N[C@@H]1CCCC[C@@H]2N3C(=O)CNC(=O)c1ccccc1 [BDG_33503003] | 1.11% | – |
| CC(=O)N1[C@H](Cc2ccccc2)[C@@H]2C[C@@]3(C)[C@H](CCC[C@@H]13)N2C(=O)CNC(=O)c1ccccc1 [BDG_33503016] | 3.61% | – |
| COc1ccccc1OCC(=O)N1[C@@H](Cc2ccccc2)[C@@H]2C[C@@]3(C)[C@H](CCC[C@@H]13)N2 [BDG_33503207] | 2.88% | – |
| COc1cccc(-c2cc(C(=O)N3[C@H]4CCC[C@H]5N(C)[C@@H](Cc6ccccc6)[C@@H]3C[C@@]45C)[nH]n2)c1 [BDG_33504530] | 8.58% | – |
| C[C@]12C[C@@H]3N[C@H]1CCCC[C@H]2N(C(=O)COc1ccc(F)cc1F)[C@H]3Cc1ccccc1 [BDG_33505865] | – | Inhibition percent [3]: 1.00 |
| COc1cccc(-c2cc(C(=O)N3[C@H]4CCC[C@H]5N(C)[C@H](Cc6ccccc6)[C@@H]3C[C@@]45C)on2)c1 [BDG_33506470] | – | Inhibition percent [2]: 3.67% |
| Cc1nc(-c2cccnc2)sc1C(=O)N1[C@H]2CCC[C@H]3N[C@H](Cc4ccccc4)[C@@H]1C[C@@]23C [BDG_33506581] | – | Inhibition percent [2]: -1.21% |
| CC(=O)N1[C@@H](Cc2ccccc2)[C@@H]2C[C@@]3(C)[C@H](CCCC[C@@H]13)N2Cc1ccc(OCC(=O)O)cc1 [BDG_33507682] | – | Inhibition percent [2]: 3.50% |
| CCc1nccn1-c1ccc(C(=O)N2[C@H]3CCC[C@H]4N[C@@H](Cc5ccccc5)[C@@H]2C[C@@]34C)cn1 [BDG_33507727] | – | Inhibition percent [2]: -2.00% |
| C[C@]12C[C@@H](Cc3ccccc3)N(C(=O)CCNC(=O)c3cccnc3)[C@H]1CCCC(=O)N2 [BDG_33627395] | – | Inhibition percent [3]: 0.80 |
| CC(=O)N[C@H]1C[C@@H](C(=O)N(C)C)N(C(=O)CCCn2c(C)nc3ccccc32)[C@H]1c1ccccc1 [BDG_33630230] | – | Inhibition percent [3]: -0.15 |
| CN(CCC(=O)N1[C@H](Cc2ccccc2)C[C@]2(C)NC(=O)CCC[C@H]12)Cc1cccnc1 [BDG_33630477] | – | Inhibition percent [2]: -2.32% |
| CC(=O)N[C@H]1C[C@@H](C(=O)N(C)C)N(C(=O)CCn2cnc3ccccc32)[C@H]1c1ccccc1 [BDG_33631962] | – | Inhibition percent [3]: 5.65 |

Further lines, with some results ahead:

| Inhibition percent [1] | SMILES | other results |
| --- | --- | --- |
| 0.85% | C[C@@]12C[C@H]3[C@@H](Cc4ccccc4)N[C@@H]1CCCC[C@@H]2N3C(=O)CNC(=O)c1cncc(O)c1 [BDG_33504652] | – |
| 12.86% | CCOc1ccc(-c2cc(C(=O)N3[C@@H](Cc4ccccc4)[C@@H]4C[C@@]5(C)[C@H](CCC[C@@H]35)N4)[nH]n2)cc1 [BDG_33504765] | – |
| -0.84% | C[C@@]12C[C@H]3[C@H](Cc4ccccc4)N[C@@H]1CCCC[C@@H]2N3C(=O)COc1ccccc1 [BDG_33505297] | – |
| -1.87% | C[C@@]12C[C@H]3[C@H](Cc4ccccc4)N[C@@H]1CCC[C@@H]2N3C(=O)c1ccnc(Cc2ccccc2F)c1 [BDG_33507770] | – |
| 0.45% | O=C(COc1ncnc2ccccc12)N1C[C@@H]2CC[C@H](Oc3ccc(Cl)cc3)[C@@H]2C1 [BDG_33516371] | – |
| 3.84% | CN(C)[C@@H]1C[C@@H](C(N)=O)N(CC(=O)Nc2ccc(Oc3ccccc3)cc2)[C@H]1c1ccccc1 [BDG_33626169] | – |
| -0.52% | Cn1c(COCC(=O)N2[C@H](Cc3ccccc3)C[C@]3(C)NC(=O)CCC[C@H]23)nc2ccccc21 [BDG_33628430] | – |
| -1.67% | C[C@]12C[C@@H](Cc3ccccc3)N(C(=O)CCCNc3ncnc4ccccc34)[C@H]1CCCC(=O)N2 [BDG_33628681] | – |
| -3.82% | Cc1cccc(NC(=O)CCCC(=O)N2[C@H](Cc3ccccc3)C[C@]3(C)NC(=O)CCC[C@H]23)n1 [BDG_33629701] | – |
| -0.51% | COc1ccc2c(c1)[C@H]1OCC3(CCN(S(C)(=O)=O)CC3)C[C@@H]1C(C)(C)O2 [BDG_33690555] | – |
